Results from ChEMBL document CHEMBL4476882, “Inhibitors of nedd8-activating enzyme” (2013).
pIC50: −log10 of the molar value. One block for each molecule: values may come before it. Calls of active or inactive are those of the source. The rule behind the calls is not given here.

Assays:
NEDD8 activating enzyme = target: T1, NEDD8 activating enzyme (Homo sapiens, UniProt Q8TBC4); test: Inhibition of recombinant human NAE using GST-tagged Ubc12 and Flag-tagged Nedd8 incubated for 105 mins by HTRF assay; type: protein-complex assay
T1 sequence (Q8TBC4 whole entry): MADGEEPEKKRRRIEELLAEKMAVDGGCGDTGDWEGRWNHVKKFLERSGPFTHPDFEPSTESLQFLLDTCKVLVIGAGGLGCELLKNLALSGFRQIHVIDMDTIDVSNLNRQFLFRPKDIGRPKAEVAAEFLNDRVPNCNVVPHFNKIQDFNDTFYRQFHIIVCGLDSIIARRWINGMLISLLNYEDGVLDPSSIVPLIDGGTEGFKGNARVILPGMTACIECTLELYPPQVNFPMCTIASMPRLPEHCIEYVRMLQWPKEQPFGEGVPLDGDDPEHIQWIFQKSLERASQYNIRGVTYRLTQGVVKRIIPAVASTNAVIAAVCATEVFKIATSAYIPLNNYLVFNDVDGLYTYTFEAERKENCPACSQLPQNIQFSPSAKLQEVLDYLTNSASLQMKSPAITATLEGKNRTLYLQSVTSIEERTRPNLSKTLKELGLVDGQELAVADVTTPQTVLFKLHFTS
T1 sequence (Q13564 whole entry): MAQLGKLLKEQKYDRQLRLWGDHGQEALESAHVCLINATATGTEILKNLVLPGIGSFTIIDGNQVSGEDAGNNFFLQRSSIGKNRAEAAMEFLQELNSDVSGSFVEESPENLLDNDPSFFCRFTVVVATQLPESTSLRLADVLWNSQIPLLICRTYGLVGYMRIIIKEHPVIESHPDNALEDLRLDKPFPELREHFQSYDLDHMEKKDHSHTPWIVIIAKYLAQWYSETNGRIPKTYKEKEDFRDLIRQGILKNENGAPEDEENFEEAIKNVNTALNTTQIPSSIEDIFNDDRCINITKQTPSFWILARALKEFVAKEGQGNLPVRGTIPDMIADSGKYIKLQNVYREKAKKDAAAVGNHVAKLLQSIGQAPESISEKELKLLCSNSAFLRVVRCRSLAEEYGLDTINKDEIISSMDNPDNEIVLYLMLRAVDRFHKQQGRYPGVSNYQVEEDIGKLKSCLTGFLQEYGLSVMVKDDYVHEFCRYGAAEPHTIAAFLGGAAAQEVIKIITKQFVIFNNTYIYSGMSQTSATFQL

Mus musculus [1] = test: Inhibition of NAE in female Ncr nude mouse bearing HCT116 tumor xenografts assessed as increase in Nedd8-Cullin levels at 30 mg/kg, sc dosed as single administration measured up to 24 hrs post dose; type: functional, organism-based
[2] = AUC (last) in plasma of female Ncr nude mouse bearing HCT116 tumor xenografts at 30 mg/kg, sc dosed as single administration measured up to 24 hrs post dose; type: ADME, organism-based; design: dose 30 mg/kg, time 0 - last, route subcutaneous
[3] = Cmax in plasma of female Ncr nude mouse bearing HCT116 tumor xenografts at 30 mg/kg, sc dosed as single administration measured up to 24 hrs post dose; type: ADME, organism-based; design: dose 30 mg/kg, route subcutaneous
Mus musculus [4] = test: Inhibition of NAE in female Ncr nude mouse bearing HCT116 tumor xenografts assessed as increase in Nedd8-Cullin levels at 10 mg/kg, sc dosed as single administration measured up to 24 hrs post dose; type: functional, organism-based
[5] = AUC (last) in plasma of female Ncr nude mouse bearing HCT116 tumor xenografts at 10 mg/kg, sc dosed as single administration measured up to 24 hrs post dose; type: ADME, organism-based; design: dose 10 mg/kg, time 0 - last, route subcutaneous
[6] = Cmax in plasma of female Ncr nude mouse bearing HCT116 tumor xenografts at 10 mg/kg, sc dosed as single administration measured up to 24 hrs post dose; type: ADME, organism-based; design: dose 10 mg/kg, route subcutaneous

SMILES: COc1ccccc1-c1nc2c(N[C@@H]3C[C@@H](COS(N)(=O)=O)[C@@H](O)C3)ncnc2[nH]1
pIC50 (NEDD8 activating enzyme): ≥ 6.30

SMILES: NS(=O)(=O)OC[C@H]1C[C@@H](Nc2ncnc(N[C@H]3CCc4ccccc43)n2)[C@H](O)[C@@H]1O
pIC50 (NEDD8 activating enzyme): ≥ 6.30

SMILES: NS(=O)(=O)OC[C@@H]1C[C@@H](Oc2cc(N[C@H]3CCc4ccccc43)ncn2)C[C@@H]1O
pIC50 (NEDD8 activating enzyme): < 5.00

SMILES: CO[C@H]1Cc2ccccc2[C@H]1Nc1cc(O[C@@H]2C[C@@H](COS(N)(=O)=O)[C@@H](O)C2)ncn1
inhibition (Mus musculus [1]): Active | AUC(0-t) at 24 h [2]: 26.3 µM·h | Cmax [3]: 27.1 µM

SMILES: Cc1c(N[C@H]2CCc3ccccc32)ncnc1O[C@@H]1C[C@@H](COS(N)(=O)=O)[C@@H](O)C1
pIC50 (NEDD8 activating enzyme): ≥ 6.30

SMILES: CN(C)C(=O)[C@H]1Cc2ccccc2[C@H]1Nc1cc(O[C@@H]2C[C@@H](COS(N)(=O)=O)[C@@H](O)C2)ncn1
pIC50 (NEDD8 activating enzyme): 5.00 to 6.30

SMILES: CO[C@H]1Cc2cc(Cl)ccc2C1Nc1cc(O[C@@H]2CC(COS(N)(=O)=O)[C@@H](O)C2)ncn1 (single isomer, unassigned)
inhibition (Mus musculus [1]): Active | AUC(0-t) at 24 h [2]: 54.8 µM·h | Cmax [3]: 24.2 µM | inhibition (Mus musculus [4]): Active | AUC(0-t) at 24 h [5]: 24.5 µM·h | Cmax [6]: 10.4 µM

Other lines, results leading:

pIC50 (NEDD8 activating enzyme): ≥ 6.30
SMILES: NS(=O)(=O)OC[C@@H]1C[C@@H](Nc2ncnc3[nH]c(-c4ccc(Cl)cc4)nc23)C[C@@H]1O

pIC50 (NEDD8 activating enzyme): ≥ 6.30
SMILES: COc1cccc(-c2nc3c(N[C@@H]4C[C@@H](COS(N)(=O)=O)[C@@H](O)C4)ncnc3[nH]2)c1OC

pIC50 (NEDD8 activating enzyme): ≥ 6.30
SMILES: CO[C@H]1CCc2ccccc2C1Nc1cc(O[C@H]2CC(O)[C@H](COS(N)(=O)=O)C2)ncn1 (single isomer, unassigned)
